We go through three compounds from ChEMBL document CHEMBL1150784, “Multicopy blaOXA-58 gene as a source of high-level resistance to carbapenems in Acinetobacter baumannii” (2007).

As usually defined, the MIC is the lowest concentration found to suppress growth. A low value points to a more susceptible organism.

In brackets after ≈: the same amount, converted by molar mass.

In experiment [1] the test system is Acinetobacter baumannii. In words: Antimicrobial activity against carbapenem-resistant Acinetobacter baumannii T183 isolate carrying one bla-OXA58 gene copy by agar dilution method. The class given is functional. (Agar dilution tests growth on a series of plates holding different concentrations.)
In experiment [2] the test system is Acinetobacter baumannii. Description: Antimicrobial activity against carbapenem-resistant Acinetobacter baumannii T193 isolate carrying two bla-OXA58 gene copies by agar dilution method. The class given is functional.
In experiment [3] the target is Beta-lactamase OXA-58 (Acinetobacter baumannii) (UniProt Q2TR58). In words: Activity of OXA58 from Acinetobacter baumannii 193 isolate carrying two bla-OXA58 gene copy assessed as hydrolytic specific activity per mg of protein.
Chain of Beta-lactamase OXA-58 (Acinetobacter baumannii) (Q2TR58 whole entry): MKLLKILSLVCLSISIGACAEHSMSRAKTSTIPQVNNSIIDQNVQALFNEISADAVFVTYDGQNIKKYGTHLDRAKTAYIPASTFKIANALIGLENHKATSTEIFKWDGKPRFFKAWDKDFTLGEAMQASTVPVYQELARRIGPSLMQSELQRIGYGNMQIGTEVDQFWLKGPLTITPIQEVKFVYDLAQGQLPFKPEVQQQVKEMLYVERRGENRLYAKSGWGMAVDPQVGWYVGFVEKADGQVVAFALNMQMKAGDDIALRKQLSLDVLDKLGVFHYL
The subject of experiment [4] is Acinetobacter baumannii. In words: Antimicrobial activity against carbapenem-resistant Acinetobacter baumannii BM4547 by agar dilution method. The class given is functional.
The test system of experiment [5] is Acinetobacter baumannii. In words: Antimicrobial activity against carbapenem-resistant Acinetobacter baumannii T186 isolate carrying three bla-OXA58 gene copies by agar dilution method. The class given is functional.
Experiment [6] addresses Beta-lactamase OXA-58 (Acinetobacter baumannii) (UniProt Q2TR58). In words: Activity of OXA58 from Acinetobacter baumannii 183 isolate carrying one bla-OXA58 gene copy assessed as hydrolytic specific activity per mg of protein.
For experiment [7] the target is unchanged. In words: Activity of Acinetobacter baumannii […] OXA58 assessed as hydrolytic specific activity per mg of protein.
Experiment [8] concerns Acinetobacter baumannii. Description: Antimicrobial activity against carbapenem-resistant Acinetobacter baumannii 193 isolate carrying two bla-OXA58 gene copies by agar dilution method. The class given is functional.
Experiment [9] concerns Klebsiella pneumoniae. Description: Antimicrobial activity against Klebsiella pneumoniae isolate expressing VIM1 gene. The class given is functional.
Experiment [10] concerns the target Beta-lactamase OXA-58 (Acinetobacter baumannii) (UniProt Q2TR58). Description: Activity of OXA58 from Acinetobacter baumannii T193 isolate carrying two bla-OXA58 gene copy assessed as hydrolytic specific activity per mg of protein.
Experiment [11] shares this target. Description: Activity of OXA58 from Acinetobacter baumannii T186 isolate carrying three bla-OXA58 gene copy assessed as hydrolytic specific activity per mg of protein.
Experiment [12] has the same target. Description: Activity of OXA58 from Acinetobacter baumannii 186 isolate carrying three bla-OXA58 gene copy assessed as hydrolytic specific activity per mg of protein.
Experiment [13] shares this target. In words: Activity of OXA58 from Acinetobacter baumannii T183 isolate carrying one bla-OXA58 gene copy assessed as hydrolytic specific activity per mg of protein.
The test system of experiment [14] is Acinetobacter baumannii. Description: Antimicrobial activity against carbapenem-resistant Acinetobacter baumannii 183 isolate carrying one bla-OXA58 gene copy by agar dilution method. The experiment is classed as functional.
The subject of experiment [15] is Acinetobacter baumannii. Description: Antimicrobial activity against carbapenem-resistant Acinetobacter baumannii 186 isolate carrying three bla-OXA58 gene copies by agar dilution method. The class given is functional.

For `CC(C)(O/N=C(\C(=O)N[C@@H]1C(=O)N2C(C(=O)[O-])=C(C[n+]3ccccc3)CS[C@H]12)c1csc(N)n1)C(=O)O` [CEFTAZIDIME], the MIC in experiment [1] worked out at 8 µg/mL (≈ 14.6 µM); in experiment [2] it was 8 µg/mL (≈ 14.6 µM); in experiment [4] it was 4 µg/mL (≈ 7.32 µM); in experiment [5], 8 µg/mL (≈ 14.6 µM). The figures for the Activity in experiment [3], in experiment [6] and in experiment [7] were 0.077 U/mg, 0.075 U/mg and below 0.01 U/mg, respectively.

`C[C@@H](O)[C@H]1C(=O)N2C(C(=O)O)=C(SCCNC=N)C[C@H]12` [IMIPENEM ANHYDROUS]: the MIC stood at 32 µg/mL (≈ 107 µM) in [8]; 2 µg/mL (≈ 6.68 µM) in [9]; 6 µg/mL (≈ 20 µM) in experiment [1]; 16 µg/mL (≈ 53.4 µM) in experiment [2]; 0.5 µg/mL (≈ 1.67 µM) in experiment [4]; 64 µg/mL (≈ 214 µM) in experiment [5]. Moreover, in experiment [14], the MIC came out at 16 µg/mL (≈ 53.4 µM). Besides, the Activity was 0.365 U/mg in experiment [10]; 0.388 U/mg in experiment [11]; 0.227 U/mg in experiment [3]; 0.27 U/mg in experiment [12]; 0.165 U/mg in experiment [6]; 0.303 U/mg in experiment [13]. The Activity in experiment [7] is below 0.01 U/mg.

On to `C[C@@H](O)[C@H]1C(=O)N2C(C(=O)O)=C(S[C@@H]3CN[C@H](C(=O)N(C)C)C3)[C@H](C)[C@H]12` [MEROPENEM], for which the MIC turned out to be 8 µg/mL (≈ 20.9 µM) in experiment [8]; 3 µg/mL (≈ 7.82 µM) in experiment [1]; 12 µg/mL (≈ 31.3 µM) in experiment [15]; 4 µg/mL (≈ 10.4 µM) in experiment [2]; 0.5 µg/mL (≈ 1.3 µM) in experiment [4]; 8 µg/mL (≈ 20.9 µM) in [5]. Moreover, 4 µg/mL (≈ 10.4 µM) was the least that counted as inhibitory in experiment [14] (MIC).
